Test results from a compilation of properties of binary mixtures (doi:10.1021/je100113r).

Experiment: xn = mol fraction of the nth substance listed
Details: 300 K, 101 kPa

| Compound | electrical conductivity (x2 = 0.201) [S/m] | electrical conductivity (x2 = 0.302) [S/m] | electrical conductivity (x2 = 0.502) [S/m] | electrical conductivity (x2 = 0.603) [S/m] | electrical conductivity (x2 = 0.802) [S/m] | electrical conductivity (x2 = 0.198) [S/m] | electrical conductivity (x2 = 0.498) [S/m] | electrical conductivity (x2 = 0.598) [S/m] | electrical conductivity (x2 = 0.503) [S/m] |
| --- | --- | --- | --- | --- | --- | --- | --- | --- | --- |
| CCCCCCCCCCCCCCCC[P+](CCCC)(CCCC)CCCC.[Br-] + O | 0.0004 | 0.0004 | 0.0004 | 0.0004 | 0.0004 | – | – | – | – |
| CCCCCCCCCCCCCCCC[P+](c1ccccc1)(c1ccccc1)c1ccccc1.[Br-] + O | – | – | – | – | – | 0.0003 | 0.0003 | 0.0004 | – |
| [Br-].[PH3+]CCCCCCCCCCCCCC(c1ccccc1)(c1ccccc1)c1ccccc1 + O | – | – | – | 0.0006 | – | – | – | – | 0.002 |
